From patent US20050209157A1, “Short bioactive peptides and methods for their use” (priority 2001, published 2005)
In brackets after ≈: the same amount, converted by molar mass. Where two headings read alike, the source gives them in different places. No end group written: not given here.

Key:
Staph. aureus 29213 = assay: microbe, parasite or virus in culture; conditions: for MBC: Staphylococcus aureus, 29213, read-out: MBC, Without peptide; for MBC, With 5 μg/mL peptide: with 5 μg/mL peptide Shiva-10
Description: This experiment determined the peptide MBC in the absence of the antimicrobial agent, or in the presence of the indicated concentration of antimicrobial agent

Escherichia coli 25922 = assay: microbe, parasite or virus in culture
Description: Synergy between peptide Shiva-10 (SEQ ID NO:4) and various antimicrobial agents was investigated against Escherichia coli 25922.
Synergy between tetracycline and various peptides was investigated against Escherichia coli 25922 MBC. […] When combined with the peptides, the concentration of tetracycline was held at 1.5 ppm.

in vitro [1] = type: cell-based, human; conditions: human, human red blood cells
[2] = system: Pseudomonas aeruginosa ATCC 27853; assay: Antimicrobial assay I, modified protocol (tryptic soy broth), MBC; conditions: minimum bactericidal concentration, Table 4
[3] = system: human leukocyte (WBC) cells; assay: Stimulation and proliferation of leukocytes, Alamar Blue; type: cell-based; conditions: 48 hours
fungal = assay: Presently preferred antifungal peptides, selected from the MIC/MBC data; type: cell-based; conditions: X = preferred
Description: The peptide's “length” is the number of amino acid residues in the sequence.

[4] = system: human red blood cells (RBC); assay: in vitro; type: cell-based; conditions: human red blood cells
cancer cell lines = assay: Anti-cancer assays, MTT, summary over the cancer cell lines; type: cell-based; conditions: X = preferred
[5] = system: Stapholococcus aureus ATCC 25923; assay: Antimicrobial assay I, modified protocol (tryptic soy broth), MBC; conditions: minimum bactericidal concentration, Table 4
in vitro [6] = conditions: human, WI38 normal lung fibroblast cells
[7] = system: human fibroblast cells (WI38); assay: Stimulation and proliferation of fibroblasts, CyQuant; type: cell-based; conditions: for Peptide treated cell activity Stimulation relative to control: 48 hrs, 2.0% FBS
Description: Procedure: Different cell lines were maintained with different medium according to the ATCC. […] The cell suspension was centrifuged for 10 minutes at 100 rpm. The supernatant was removed and discarded without disturbing the cell pellet. A concentrated cell suspension was prepared in 1.0 ml of medium to obtain a density of about 10^5 to 10^6 cells/ml. The actual cell density was determined by counting the cells using a hemocytometer with the Trypan Blue method. Cell numbers were adjusted to obtain equal number of cells per 200 μl volume. Cells were plated with 0% FBS, 2% FBS, 3% FBS and 5% FBS. The plates were incubated at 37° C. for a time sufficient to allow the cells to attach. For long-term proliferation studies, 100 μl of medium was removed from each well each day and replaced with fresh medium.
At the desired time, the medium was removed from the adherent cells in a 96 well plate. These cells were already treated with test agents. The cells were frozen in the plate at −70° C. for 30 minutes. The cells were thawed at room temperature. CyQuant GR dry/Cell Lysis Buffer (200 μl) was added to each sample cell. The cells were incubated at room temperature for 15 minutes while protected from the light. Fluorescence was measured using fmax at 485-538 nm.
The above CyQuant protocol was used to examine possible peptide stimulation and/or proliferation of fibroblasts. […] This is shown by the addition of Fetal Bovine Serum (FBS) to the medium. […] Control cells and peptide treated cells are with medium and FBS as indicated.

[8] = system: Escherichia coli ATCC 25922; assay: Antimicrobial assay I, modified protocol (tryptic soy broth), MBC; conditions: minimum bactericidal concentration, Table 4
[9] = system: Candida albicans ATCC 10231; assay: Antimicrobial assay I, modified protocol (tryptic soy broth), MFC; conditions: minimum fungicidal concentration, Table 4
Description: The preparation of all media, stock solutions, and dilutions took place in a laminar flow hood to prevent contamination. Bacterial cells were freshly grown on antibiotic medium 2 agar slants (pH 7.0 at 25° C.). Bacteria were suspended and diluted in antibiotic medium 3 to about 10^4 cfu/ml and used as the inoculum. Sample solutions (100 μl/well) were added to plates according to the plate layout. Inoculum (100 μl/well) was added to achieve a final concentration of 5×10^3 cfu/ml. Negative controls received 100 μl saline and 100 μl growth medium. Positive controls received 100 μl saline and 100 μl inoculum. Bacterial plates were incubated at 37° C. for 24 hours.
However, the data for Table 4 were obtained with a modified protocol wherein the medium was tryptic soy broth, inocolum strength was approximately 10^4 CFU per ml, and values determined were minimum bactericidal concentrations (MBC) or minimum fungicidal concentrations (MFC).
MBC or MFC values are in μg/mL. E. coli is Escherichia coli ATCC accession number 25922; P. aerug is Pseudomonas aeruginosa ATCC accession number 27853, S. aur. is Stapholococcus aureus ATCC accession number 25923; Candida is Candida albicans ATCC accession number 10231.

S. pyogenes M76 = assay: Antimicrobial assays II, NCCLS broth microdilution MIC; type: cell-based, Streptococcus pyogenes; conditions: mean of three; 16 to 20 hours at 35° C.
PC3 = assay: Anti-cancer assay, MTT, LD50; type: cell-based; conditions: 24 hours with peptide, prostate adenocarcinoma
Description: (§1) Numbers are LD50 values (μg/mL).

BMKC = assay: Anti-cancer assay, MTT, LD50; type: cell-based; conditions: BMKC cloned melanoma line, 24 hours with peptide
Description: as §1

HeLaS3 = assay: Anti-cancer assay, MTT, LD50; type: cell-based; conditions: 24 hours with peptide, cervical carcinoma
Description: as §1

MCF7 = assay: Anti-cancer assay, MTT, LD50; type: cell-based; conditions: MCF7 breast adenocarcinoma line, MTT, 24 hours with peptide
Description: as §1

SW480 = assay: Anti-cancer assay, MTT, LD50; type: cell-based; conditions: SW480 colon adenocarcinoma line, 24 hours with peptide
Description: as §1

H1299 = assay: Anti-cancer assay, MTT, LD50; type: cell-based; conditions: 24 hours with peptide, lung large cell carcinoma
Description: as §1

S. pyogenes ATCC19615 = assay: Antimicrobial assays II, NCCLS broth microdilution MIC; type: cell-based, Streptococcus pyogenes; conditions: mean of three, in µg/mL
WI38 = conditions: MTT, 24 hours with peptide; normal fibroblast line
S. aureus (MRSA) = type: cell-based, Staphylococcus aureus; conditions: mean of three; 16 to 20 hours at 35° C.
[10] = system: Staphylococcus aureus ATCC 6538; assay: Antimicrobial assay I, MIC by OD measurement; type: cell-based; conditions: 37° C. for 24 hours, absorbance 620 nm
[11] = system: Pseudomonas aeruginosa ATCC 9027; assay: Antimicrobial assay I, MIC by OD measurement; type: cell-based; conditions: 37° C. for 24 hours, absorbance 620 nm
S. epidermidis C621 = type: cell-based, Staphylococcus epidermidis; conditions: mean of three; 16 to 20 hours at 35° C.
P. acne ATCC 6919 = assay: Antimicrobial assays II, NCCLS broth microdilution MIC; type: cell-based, Propionibacterium acnes; conditions: mean of three, in µg/mL
S. pneumoniae C718 = assay: as above; type: cell-based, Streptococcus pneumoniae; conditions: mean of three
[12] = system: yeast (Saccharomyces cerevisiae); assay: Antimicrobial assay I, yeast assay in RPMI 1640; type: cell-based; conditions: RPMI 1640 media
P. aeruginosa H374 = type: cell-based, Pseudomonas aeruginosa; conditions: for FIC Index: 0.5 or less = synergy
In short: (§2)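 Efflux-mutant strains were tested with two-fold serial dilutions of chloramphenicol or nalidixic acid, alone and with peptide held at ¼ of its own MIC.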

P. aeruginosa H774 = type: cell-based, Pseudomonas aeruginosa; conditions: P. aeruginosa H744; nalidixic acid + peptide at ¼ MIC; 0.5 or less = synergy
In short: as §2

P. aeruginosa = type: cell-based, Pseudomonas aeruginosa; conditions: P. aeruginosa H744; MIC of nalidixic acid with peptide at ¼ MIC
In short: as §2

[13] = pH 7, hemolytic assay, concentration at 50% hemolysis, 1 hour at 37° C., read-out: LD50
[14] = Escherichia coli, 25922, read-out: MBC, Without peptide

CC(C)C[C@H](NC(=O)[C@H](C)NC(=O)[C@H](CC(C)C)NC(=O)[C@H](C)NC(=O)[C@H](CC(C)C)NC(=O)[C@H](CCCCN)NC(=O)[C@H](C)NC(=O)[C@H](CC(C)C)NC(=O)[C@H](CCCCN)NC(=O)[C@H](CCCCN)NC(=O)[C@H](C)NC(=O)[C@H](CC(C)C)NC(=O)[C@H](CCCCN)NC(=O)[C@H](CCCCN)NC(=O)[C@H](CC(C)C)NC(=O)[C@H](CCCCN)NC(=O)[C@H](CCCCN)NC(=O)[C@H](C)NC(=O)[C@H](CC(C)C)NC(=O)[C@H](CCCCN)NC(=O)[C@H](CCCCN)NC(=O)[C@H](C)NC(=O)[C@@H](N)Cc1ccccc1)C(N)=O [P11, reference compound]
MBC, Without peptide (Staph. aureus 29213; agent alone): 200 µg/mL (≈ 78.9 µM)
MBC, Without peptide (Escherichia coli 25922; agent alone): 50 µg/mL
HC50 at 1 h (in vitro [1]; [13]): 76 µg/mL

CN(C)[C@@H]1C(O)=C(C(N)=O)C(=O)[C@@]2(O)C(O)=C3C(=O)c4c(O)cccc4[C@@](C)(O)[C@H]3C[C@@H]12 [Tetracycline]
MBC (Staph. aureus 29213): 10 µg/mL (≈ 22.5 µM)
MBC, With 5 μg/mL peptide (Staph. aureus 29213): 1 µg/mL (≈ 2.25 µM)
MBC (Escherichia coli 25922; Escherichia coli, 25922, read-out: MBC of tetracycline): 10 µg/mL
MBC (Escherichia coli 25922; [14]): 10 µg/mL
MBC, With peptide (Escherichia coli 25922; with 5 μg/mL peptide Shiva-10): 2.5 µg/mL

CCN1CCN(C(=O)N[C@@H](C(=O)N[C@@H]2C(=O)N3C(C(=O)O)=C(CSc4nnnn4C)CS[C@H]23)c2ccc(O)cc2)C(=O)C1=O [Cefoperazone]
MBC (Staph. aureus 29213): 10 µg/mL (≈ 15.5 µM)
MBC, With 5 μg/mL peptide (Staph. aureus 29213): 2.5 µg/mL (≈ 3.87 µM)
MBC (Escherichia coli 25922; [14]): 150 µg/mL
MBC, With peptide (Escherichia coli 25922; with 15 μg/mL peptide Shiva-10): 2.5 µg/mL

FALALKALKKALKKLKKALKKAL-NH2 [compound 2]
MBC P. aerug A.27853 [2]: 10 µg/mL
Peptide treated cell activity Percent stimulation relative to control ([3]; 0.1 ug/ml): 117%
Peptide treated cell activity Percent stimulation relative to control ([3]; 1 ug/ml): 118%
Peptide treated cell activity Percent stimulation relative to control ([3]; 10 ug/ml): 119%
Peptide treated cell activity Percent stimulation relative to control ([3]; 100 ug/ml): 121%
Peptide treated cell activity Percent stimulation relative to control ([3]; 500 ug/ml): 119%
Anti-fungal (preferred peptide) (fungal): X (Preferred antifungal peptides can be selected as having MIC or MBC values of less than or equal to about 25 μg/ml)
HC50 at 1 h (in vitro [1]; pH 7, Table 26, valine substitution, read-out: Hemolysis RBC LD50): 12 µg/mL
Peptide toxicity RBC LD/50 [4]: 30
Anti-cancer (preferred peptide) (cancer cell lines): X (Preferred anticancer peptides can be selected as having LD50 values of less than or equal to about 25 μg/ml)
MBC S. aur A.25923 [5]: 25 µg/mL
CC50 at 24 h (in vitro [6]; Peptide toxicity WI-38 LD/50, human fibroblast cells): 66 µg/mL
CC50 at 24 h (in vitro [6]; WI-38 LD50, Table 26, valine substitution): 66 µg/mL
percent cell viability above or below control ([7]; 0.1 μg/ml, 0% FBS): −27%
Peptide treated cell activity Stimulation relative to control ([7]; 0.1 μg/ml): 125%
percent cell viability above or below control ([7]; 0.1 μg/ml, […] FBS): 26%
percent cell viability above or below control ([7]; 1 μg/ml, 0% FBS): −3%
Peptide treated cell activity Stimulation relative to control ([7]; 1 μg/ml): 156%
percent cell viability above or below control ([7]; 1 μg/ml, […] FBS): 57%
percent cell viability above or below control ([7]; 10 μg/ml, 0% FBS): 27%
Peptide treated cell activity Stimulation relative to control ([7]; 10 μg/ml): 122%
percent cell viability above or below control ([7]; 10 μg/ml, […] FBS): 23%
percent cell viability above or below control ([7]; 100 μg/ml, 0% FBS): −82%
Peptide treated cell activity Stimulation relative to control ([7]; 100 μg/ml): 35%
percent cell viability above or below control ([7]; 100 μg/ml, […] FBS): −66%
MBC E. coli A.25922 [8]: 25 µg/mL
MFC Candida A.10231 [9]: >50 µg/mL

CC1(C)S[C@@H]2[C@H](NC(=O)[C@H](C(=O)O)c3ccsc3)C(=O)N2[C@H]1C(=O)O [Ticarcillin]
MBC (Staph. aureus 29213): 25 µg/mL (≈ 65 µM)
MBC, With 5 μg/mL peptide (Staph. aureus 29213): 15 µg/mL (≈ 39 µM)
MBC (Escherichia coli 25922; [14]): 100 µg/mL
MBC, With peptide (Escherichia coli 25922; with 15 μg/mL peptide Shiva-10): 50 µg/mL

CC(C)C[C@H](NC(=O)[C@H](C)NC(=O)[C@H](CC(C)C)NC(=O)[C@H](CCCCN)NC(=O)[C@H](C)NC(=O)[C@H](CC(C)C)NC(=O)[C@H](CCCCN)NC(=O)[C@H](CCCCN)NC(=O)[C@H](C)NC(=O)[C@H](CC(C)C)NC(=O)[C@H](CCCCN)NC(=O)[C@H](C)NC(=O)[C@H](CC(C)C)NC(=O)[C@H](CCCCN)NC(=O)[C@H](CCCCN)NC(=O)[C@H](C)NC(=O)[C@@H](N)Cc1ccccc1)C(N)=O [P35]
S. pyogenes M76 MIC (S. pyogenes M76): 4 µg/mL
PC3 LD50 (PC3): 5 µg/mL
LD50 BMKC (BMKC): 7 µg/mL
HeLaS3 LD50 (HeLaS3): 27 µg/mL
LD50 MCF7 (MCF7): 9 µg/mL
LD50 SW480 (SW480): 14 µg/mL
H1299 LD50 (H1299): 16 µg/mL
S. pyogenes MIC (S. pyogenes ATCC19615): 16
WI38 LD50 (WI38): 8 µg/mL
MBC of peptide (Staph. aureus 29213; in the presence of Cefoperazone ([…])): 20 µg/mL
MBC of peptide (Staph. aureus 29213; in the presence of Vancomycin (1 ppm)): 32 µg/mL
MBC of peptide (Staph. aureus 29213; peptide alone): 50 µg/mL
S. aureus (MRSA) MIC (S. aureus (MRSA)): 8 µg/mL
HC50 at 1 h (in vitro [1]; [13]): 200 µg/mL
staph6538 (MIC) [10]: 5 µg/mL
paerug9027 (MIC) [11]: 200 µg/mL
S. epidermidis C621 MIC (S. epidermidis C621): 4 µg/mL
CC50 at 24 h (in vitro [6]; LD50 WI38, WI38 normal lung fibroblast line, MTT, 24 hours with peptide): 8 µg/mL (≈ 4.31 µM)
P. acne MIC (P. acne ATCC 6919): 4
S. pneumoniae MIC (S. pneumoniae C718): 4 µg/mL
yeast (MIC or MFC) [12]: 25 µg/mL
MIC Cm-comb. (P. aeruginosa H374; MIC of chloramphenicol with peptide at ¼ MIC): 16 µg/mL
MIC Nal-comb. (P. aeruginosa H374; MIC of nalidixic acid with peptide at ¼ MIC): 10,000 μg/ml
FIC Index (P. aeruginosa H374; chloramphenicol + peptide at ¼ MIC): 1.25
FIC Index (P. aeruginosa H374; nalidixic acid + peptide at ¼ MIC, FIC=0.25+MIC comb/MIC alone): 2.25
FIC Index (P. aeruginosa H774): 1.25
MIC Nal-comb. (P. aeruginosa): 624 µg/mL
